# Test results reported in patent publication US6358883B1, “Pesticidal and parasiticidal use of 1-aryl-1-(substituted thio, sulfinyl and sulfonyl)-2-nitroethane compounds” (American Cyanamid Company, priority 1998, dated 2002).
# Tests used:
# Type in all cases: in vivo
# [1] = tested on: Aphis gossypii, cotton aphid (CA); assay: Cotton aphid (CA) cotyledon dip test; design: key: 0 = no effect; 1 = 10-25% kill; 2 = 26-35% kill; 3 = 36-45% kill; 4 = 46-55% kill; 5 = 56-65% kill; 6 = 66-75% kill; 7 = 76-85% kill; 8 = 86-99% kill; 9 = 100% kill; settings: mortality after 5 days
# Procedure, shortened: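 Mortality was scored 5 days after dipping aphid-infested cotyledons, colonised overnight from a transfer leaf, into water dilutions of a 35% acetone/water compound solution.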
# [2] = tested on: Spodoptera eridania, 2nd instar larvae, southern armyworm (SAW); assay: Southern armyworm (SAW) leaf dip test; design: key: 0 = no effect; 1 = 10-25% kill; 2 = 26-35% kill; 3 = 36-45% kill; 4 = 46-55% kill; 5 = 56-65% kill; 6 = 66-75% kill; 7 = 76-85% kill; 8 = 86-99% kill; 9 = 100% kill
# Procedure, shortened: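 Ten 2nd instar caterpillars feed on a Sieva lima bean leaf that was dipped 3 seconds in test solution (stock 10,000 ppm in 35% acetone/water, water-diluted). Five days later, larvae are assessed for death, feeding reduction or abnormal molting.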
# [3] = tested on: Diabrotica virgifera virgifera Leconte, 2nd instar western corn rootworm (WCR); assay: Western corn rootworm (WCR) soil test; design: key: 0 = no effect; 1 = 10-25% kill; 2 = 26-35% kill; 3 = 36-45% kill; 4 = 46-55% kill; 5 = 56-65% kill; 6 = 66-75% kill; 7 = 76-85% kill; 8 = 86-99% kill; 9 = 100% kill
# Procedure, shortened: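 Ten 2nd-instar rootworm larvae are placed in jars of moist soil with millet seed and talc treated with 1.25 mg active ingredient (roughly 50 kg/ha) from a 35% acetone-in-water solution. After 5 days mortality is scored, counting missing larvae as dead.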
# [4] = tested on: Tetranychus urticae (OP-resistant strain), 2-spotted spider mite (TSM); assay: 2-spotted spider mite (TSM) plant dip test; design: key: 0 = no effect; 1 = 10-25% kill; 2 = 26-35% kill; 3 = 36-45% kill; 4 = 46-55% kill; 5 = 56-65% kill; 6 = 66-75% kill; 7 = 76-85% kill; 8 = 86-99% kill; 9 = 100% kill; settings: mortality after 2 days
# Procedure, shortened: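 Mortality counted 2 days after a 3 s agitated dip of infested Sieva lima bean plants. Compound came from a 10,000 ppm stock in 35% aqueous acetone, with further dilution in water. Each primary leaf carried about 100 OP-resistant mites, allowed to settle ~2 h before dipping.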
# [5] = tested on: Spodoptera eridania, eggs-southern armyworm (SAW-Eggs); assay: Southern armyworm eggs (SAW-Eggs) treated diet test; design: key: 0 = no effect; 1 = 10-25% kill; 2 = 26-35% kill; 3 = 36-45% kill; 4 = 46-55% kill; 5 = 56-65% kill; 6 = 66-75% kill; 7 = 76-85% kill; 8 = 86-99% kill; 9 = 100% kill; settings: mortality after 7 days
# Procedure, shortened: (§1)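 Eggs of S. eridania or D. undecimpunctata howardi were set on artificial diet pretreated with test solution (10,000 ppm stock in 35% aqueous acetone, water dilutions) and dried. Wells were sealed with vented clear covers, and mortality was scored at day 7.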
# [6] = tested on: Diabrotica undecimpunctata howardi, eggs-southern corn rootworm (SCR-Eggs); assay: Southern corn rootworm eggs (SCR-Eggs) treated diet test; design: key: 0 = no effect; 1 = 10-25% kill; 2 = 26-35% kill; 3 = 36-45% kill; 4 = 46-55% kill; 5 = 56-65% kill; 6 = 66-75% kill; 7 = 76-85% kill; 8 = 86-99% kill; 9 = 100% kill; settings: mortality after 7 days
# Procedure, shortened: as §1
# [7] = tested on: M. incognita (Root Knot Nematode) larvae; assay: Evaluation of test compounds against M. incognita larvae in microtiter plate wells (movement score); settings: larvae scored for movement after 20-24 hours; also: key: A score of '9' indicates inactive worms with a straight, sticklike morphology; A score of '8' indicates inactive worms with a limp, curled or curved morphology; A score of '7' indicates dead/paralyzed worms after 72 hours
# Procedure, shortened: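 Scoring is by larval movement: dead or paralyzed worms count as positive, and a "7" means dead/paralyzed at 72 hours. Freshly hatched root-knot larvae (50-65 per well) in buffered S Medium were incubated with compounds under plate sealers for 20-24 h before the first read.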
# [8] = tested on: C. elegans (Bristol strain); assay: Evaluation of test compounds against C. elegans (motility, 96-well plate); design: key: 9=complete kill in 4 hours; 8=complete kill in 24 hours; 7=markedly reduced motility in approximately 95% of worms in 24 hours; 0=normal motility, same as controls; settings: motility at 4 and 24 hours
# Procedure, shortened: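 Activity is a semi-quantitative visual score of adult and larval movement, read at 4 h and 24 h post-immersion at 20 °C after gentle tapping. Worms were suspended in Na buffer in wells where compound, dissolved in 80% acetone, had been evaporated.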
SMILES,CA (300 ppm) rating [1],SAW (300 ppm) rating [2],WCR (50 ppm) rating [3],TSM (300 ppm) rating [4],SAW Eggs (300 ppm) rating [5],SCR Eggs (1000 ppm) rating [6],M. incognita (150 ppm) score [7],Rating Against C. elegans (150 ppm) [8]
O=[N+]([O-])CC(SCc1ccccc1)c1c(Cl)cccc1Cl (stereo not drawn) [Example 137],0,0,0,0,9 (9 = 100% kill),9 (9 = 100% kill),0,0
O=C(CSC(C[N+](=O)[O-])c1ccc2c(c1)OCO2)OCc1ccccc1 (racemic) [Example 106],0,0,0,0,0,0,0,8
C=CCSC(C[N+](=O)[O-])c1ccc(OC)cc1 (stereo not drawn) [Example 54],0,0,5 (5 = 56-65% kill),0,0,0,9,9
CCCCOC(=O)CSC(C[N+](=O)[O-])c1ccc2c(c1)OCO2 (stereo not drawn) [Example 20],0,0,0,0,0,0,9,8
CCCSC(C[N+](=O)[O-])c1c(Cl)cccc1Cl (stereo not drawn) [Example 136],0,0,0,0,0,0,0,0
COc1cccc(C(C[N+](=O)[O-])SCC(=O)OCCCCCC(C)C)c1 (stereo not drawn) [Example 58],0,0,0,0,0,0,0,0
COC(=O)CSC(C[N+](=O)[O-])c1ccc2ccccc2c1 (racemic) [Example 110],0,0,0,0,0,0,0,9
CCCSC(C[N+](=O)[O-])c1ccc2c(c1)OCO2 (stereo not drawn) [Example 24],0,0,0,0,0,0,9,8
CCCSC(C[N+](=O)[O-])c1ccc(OC(F)(F)F)cc1 (racemic) [Example 122],0,2 (2 = 26-35% kill),9 (9 = 100% kill),7 (7 = 76-85% kill),7 (7 = 76-85% kill),0,0,8
CCCOC(=O)CSC(C[N+](=O)[O-])c1ccc2ccccc2c1 (racemic) [Example 112],0,0,0,0,8 (8 = 86-99% kill),0,0,9
O=C(O)CSC(C[N+](=O)[O-])c1ccc2ccccc2c1 (racemic) [Example 109],0,0,0,0,0,0,0,9
CCCSC(C[N+](=O)[O-])c1ccc2ccccc2c1 (racemic) [Example 115],0,0,0,0,8 (8 = 86-99% kill),0,0,0
O=C(CSC(C[N+](=O)[O-])c1c(Cl)cccc1Cl)OCc1ccccc1 (stereo not drawn) [Example 135],0,0,0,0,0,9 (9 = 100% kill),0,0
C=CCSC(C[N+](=O)[O-])c1ccc(OC(F)(F)F)cc1 (stereo not drawn) [Example 123],0,0,5 (5 = 56-65% kill),0,8 (8 = 86-99% kill),0,0,7
CCCOC(=O)CSC(C[N+](=O)[O-])c1ccc(OC(F)(F)F)cc1 (racemic) [Example 119],0,0,0,3 (3 = 36-45% kill),9 (9 = 100% kill),0,9,8
